# In patent US20190093170A1, “USE OF TRANSLATIONAL PROFILING TO IDENTIFY TARGET MOLECULES FOR THERAPEUTIC TREATMENT” (THE REGENTS OF THE UNIVERSITY OF CALIFORNIA, priority 2013, published 2019):
# Tested on: PC3 human prostate cancer cells
# Experiment: RNA-seq mRNA abundance (part of ribosome profiling experiment);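 further: average poly(A) RNA-seq read density per codon over the coding sequence, excluding 15 initial and 5 final codons, mapped to hg19 transcripts, taken as mRNA abundance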
# Assay type: cell-based
# Settings: for Rapamycin mRNA: 3-hour treatment with rapamycin (50 nM) in PC3 cells
# Method: Cells were subsequently treated with cycloheximide (100 μg ml^−1; Sigma) and detergent lysis was performed in the dish. The lysate was treated with DNase and clarified, and a sample was taken for RNA-seq analysis. Lysates were subjected to ribosome footprinting by nuclease treatment. Ribosome-protected fragments were purified, and deep sequencing libraries were generated from these fragments, as well as from poly(A) mRNA purified from non-nuclease-treated lysates. These libraries were analyzed by sequencing on an Illumina GAII.
# Ribosome footprint and RNA-seq sequencing reads were aligned against a library of transcripts from the UCSC Known Genes database GRCh37/hg19. The first 25 nucleotides of each read were aligned using Bowtie and this initial alignment was then extended to encompass the full fragment-derived portion of the sequencing read while excluding the linker sequence. Read density profiles were then constructed for the canonical transcript of each gene, using only reads with 0 or 1 total mismatches between the read sequence and the reference sequence, comprised of the transcript fragment followed by the linker sequence. Footprint reads were assigned to an A site nucleotide at position +15 to +17 of the alignment, based on the total fragment length; mRNA reads were assigned to the first nucleotide of the alignment. The average read density per codon was then computed for the coding sequence of each transcript, excluding the first 15 and last 5 codons, which can display atypical ribosome accumulation.
# Average read density was used as a measure of mRNA abundance (RNA-seq reads) and of protein synthesis (ribosome profiling reads). For most analyses, genes were filtered to require at least 256 reads in the relevant RNA-seq samples. Translational efficiency was computed as the ratio of ribosome footprint read density to RNA-seq read density, scaled to normalize the translational efficiency of the median gene to 1.0 after excluding regulated genes (log 2 fold-change+1.5 after normalizing for the all-gene median). Changes in protein synthesis, mRNA abundance and translational efficiency were similarly computed as the ratio of read densities between different samples, normalized to give the median gene a ratio of 1.0. This normalization corrects for differences in the absolute number of sequencing reads obtained for different libraries.
smiles,measurement,setting,value
"CO[C@H]1C[C@@H]2CC[C@@H](C)[C@@](O)(O2)C(=O)C(=O)N2CCCC[C@H]2C(=O)O[C@H]([C@H](C)C[C@@H]2CC[C@@H](O)[C@H](OC)C2)CC(=O)[C@H](C)/C=C(\C)[C@@H](O)[C@@H](OC)C(=O)[C@H](C)C[C@H](C)/C=C/C=C/C=C/1C [Rapamycin, rapamycin]",Rapamycin mRNA,gene ACD,−0.96
same,mRNA,gene ACTG1,0.02
same,mRNA,gene AGRN,0.01
same,mRNA,gene ALKBH7,0.06
same,mRNA,gene AP2A1,0.09
same,mRNA,gene ARD1A,−0.04
same,mRNA,gene ATP5G2,0.29
same,Rapamycin mRNA,gene C17orf28,−0.44
same,mRNA,gene C21orf66,−0.30
same,Rapamycin mRNA,gene CCNA1,−0.51
same,mRNA,gene CCNI,0.29
same,mRNA,gene CD44,0.34
same,mRNA,gene CIRBP,0.14
same,mRNA,gene CLPTM1,0.07
same,mRNA,gene COL6A2,−0.08
same,mRNA,gene CRTAP,0.29
same,Rapamycin mRNA,gene DDX51,−0.24
same,Rapamycin mRNA,gene DGCR2,−0.66
same,mRNA,gene ECSIT,−0.04
same,Rapamycin mRNA,gene EEF1A1,0.46
same,mRNA,gene EEF1A2,0.03
same,mRNA,gene EEF1D,0.18
same,mRNA,gene EEF1G,0.21
same,mRNA,gene EEF2,0.39
same,mRNA,gene EIF3H,0.16
same,mRNA,gene EIF3L,0.28
same,mRNA,gene EIF4B,0.55
same,mRNA,gene EVPL,−0.08
same,mRNA,gene FAM83H,−0.17
same,mRNA,gene FAM128B,0.06
same,mRNA,gene FASN,−0.37
same,mRNA,gene GLTSCR2,0.31
same,mRNA,gene GNB2L1,0.19
same,Rapamycin mRNA,gene GTPBP3,−0.73
same,mRNA,gene HNRNPA1,0.18
same,mRNA,gene HSPA8,−0.21
same,mRNA,gene IMPDH2,0.11
same,mRNA,gene LAMA5,−0.32
same,mRNA,gene LMF2,0.22
same,Rapamycin mRNA,gene MAPK6,0.13
same,Rapamycin mRNA,gene MAPKAPK2,−0.21
same,mRNA,gene MTA1,0.00
same,mRNA,gene NCLN,−0.05
same,Rapamycin mRNA,gene NFATC21P,−0.16
same,Rapamycin mRNA,gene NR2F1,0.05
same,mRNA,gene PABPC1,0.35
same,mRNA,gene PABPC4,0.24
same,mRNA,gene PACS1,0.07
same,mRNA,gene PFDN5,0.11
same,mRNA,gene PGLS,0.03
same,mRNA,gene PGM1,0.40
same,mRNA,gene PNKP,−0.24
same,Rapamycin mRNA,gene PRKD3,−0.22
same,mRNA,gene PTGES2,−0.19
same,mRNA,gene RABGGTB,−0.20
same,mRNA,gene RPL3,0.18
same,mRNA,gene RPL4,0.22
same,mRNA,gene RPL7,0.15
same,mRNA,gene RPL7A,0.17
same,mRNA,gene RPL9,0.16
same,mRNA,gene RPL10,0.09
same,mRNA,gene RPL10A,0.16
same,mRNA,gene RPL11,0.09
same,mRNA,gene RPL12,0.07
same,mRNA,gene RPL13,0.14
same,mRNA,gene RPL13A,0.15
same,mRNA,gene RPL15,0.11
same,mRNA,gene RPL18A,0.17
same,mRNA,gene RPL19,0.14
same,mRNA,gene RPL21,0.14
same,mRNA,gene RPL22,0.08
same,mRNA,gene RPL24,0.11
same,mRNA,gene RPL26,0.15
same,mRNA,gene RPL27,0.05
same,mRNA,gene RPL27A,0.06
same,mRNA,gene RPL28,0.24
same,Rapamycin mRNA,gene RPL28,0.64
same,mRNA,gene RPL31,−0.02
same,mRNA,gene RPL32,0.22
same,mRNA,gene RPL34,0.11
same,mRNA,gene RPL36A,0.13
same,mRNA,gene RPL37A,0.08
same,mRNA,gene RPL39,0.17
same,Rapamycin mRNA,gene RPL39,0.30
same,mRNA,gene RPL41,0.04
same,mRNA,gene RPLP0,0.15
same,mRNA,gene RPLP1,0.28
same,mRNA,gene RPLP2,0.26
same,mRNA,gene RPS2,0.07
same,mRNA,gene RPS3,0.22
same,mRNA,gene RPS3A,0.22
same,mRNA,gene RPS4X,0.18
same,mRNA,gene RPS5,0.14
same,mRNA,gene RPS7,0.11
same,mRNA,gene RPS9,0.10
same,mRNA,gene RPS12,0.11
same,mRNA,gene RPS13,0.07
same,mRNA,gene RPS14,0.10
same,mRNA,gene RPS15,−0.01
same,mRNA,gene RPS15A,0.07
same,mRNA,gene RPS19,0.15
same,mRNA,gene RPS20,0.18
same,Rapamycin mRNA,gene RPS20,0.14
same,mRNA,gene RPS21,−0.01
same,mRNA,gene RPS25,0.04
same,mRNA,gene RPS27,0.10
same,Rapamycin mRNA,gene RPS27,0.07
same,mRNA,gene RPS27A,0.16
same,mRNA,gene RPS28,0.01
same,Rapamycin mRNA,gene SDCCAG10,−0.19
same,mRNA,gene SLC19A1,-0.36
same,mRNA,gene TKT,0.02
same,mRNA,gene TPT1,0.24
same,mRNA,gene TSC2,−0.15
same,mRNA,gene UBA52,0.12
same,Rapamycin mRNA,gene UBTD2,0.19
same,Rapamycin mRNA,gene UCHL5,−0.08
same,Rapamycin mRNA,gene VHL,−0.23
same,mRNA,gene VIM,0.36
same,mRNA,gene YB1,0.11
